Measurements from ChEMBL document CHEMBL4130445, “TNF-α and IL-6 inhibitors: Conjugates of N-substituted indole and aminophenylmorpholin-3-one as anti-inflammatory agents” (Eur J Med Chem, 2017).
Calls of active or inactive are those of the source. No cut-off for these calls is given here.

What was measured:
BV-2 [1] = assay: Cytotoxicity in mouse BV2 cells assessed as reduction in cell viability incubated for 48 hrs by MTT assay; format: cell-based; conditions: BV-2, 48 h
BV-2 [2] = assay: Suppression of LPS-induced morphological changes in mouse BV2 cells at 5 uM pre-incubated before LPS stimulation by phase contrast microscopy; format: functional, cell-based
BV-2 [3] = assay: Suppression of LPS-induced morphological changes in mouse BV2 cells at 10 uM pre-incubated before LPS stimulation by phase contrast microscopy; format: functional, cell-based
[4] = target: T1, Prostaglandin G/H synthase 2 (Homo sapiens) (UniProt P35354); assay: Inhibition of COX2 (unknown origin) by immunoassay
T1 sequence (whole entry): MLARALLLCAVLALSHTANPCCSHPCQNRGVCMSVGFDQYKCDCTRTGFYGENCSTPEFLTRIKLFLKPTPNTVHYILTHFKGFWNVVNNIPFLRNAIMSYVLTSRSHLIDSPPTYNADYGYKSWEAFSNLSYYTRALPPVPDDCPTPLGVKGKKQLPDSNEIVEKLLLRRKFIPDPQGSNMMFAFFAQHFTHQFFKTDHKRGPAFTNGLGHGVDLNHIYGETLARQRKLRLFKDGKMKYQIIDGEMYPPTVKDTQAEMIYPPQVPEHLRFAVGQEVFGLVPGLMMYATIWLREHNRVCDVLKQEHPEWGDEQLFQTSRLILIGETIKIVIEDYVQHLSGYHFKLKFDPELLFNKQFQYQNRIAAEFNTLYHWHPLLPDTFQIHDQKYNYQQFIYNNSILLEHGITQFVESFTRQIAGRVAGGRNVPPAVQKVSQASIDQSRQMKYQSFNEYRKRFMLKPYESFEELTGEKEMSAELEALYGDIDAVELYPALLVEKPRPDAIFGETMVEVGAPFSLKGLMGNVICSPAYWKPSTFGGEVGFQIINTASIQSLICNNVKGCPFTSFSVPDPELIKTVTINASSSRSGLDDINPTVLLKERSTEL

[5] = Cytotoxicity in mouse BV2 cells assessed as cell viability at 0.5 uM incubated for 48 hrs by MTT assay (reference value: 100%); format: cell-based, BV-2; conditions: read-out: Activity
[6] = Cytotoxicity in mouse BV2 cells assessed as cell viability at 1 uM incubated for 48 hrs by MTT assay (reference value: 100%); format: cell-based, BV-2; conditions: read-out: Activity
[7] = Cytotoxicity in mouse BV2 cells assessed as cell viability at 5 uM incubated for 48 hrs by MTT assay (reference value: 100%); format: cell-based, BV-2; conditions: read-out: Activity
[8] = Cytotoxicity in mouse BV2 cells assessed as cell viability at 10 uM incubated for 48 hrs by MTT assay (reference value: 100%); format: cell-based, BV-2; conditions: read-out: Activity
[9] = Cytotoxicity in mouse BV2 cells assessed as cell viability at 15 uM incubated for 48 hrs by MTT assay (reference value: 100%); format: cell-based, BV-2; conditions: read-out: Activity
[10] = Cytotoxicity in mouse BV2 cells assessed as cell viability at 20 uM incubated for 48 hrs by MTT assay (reference value: 100%); format: cell-based, BV-2; conditions: read-out: Activity
[11] = Cytotoxicity in mouse BV2 cells assessed as cell viability at 40 uM incubated for 48 hrs by MTT assay (reference value: 100%); format: cell-based, BV-2; conditions: read-out: Activity
[12] = Cytotoxicity in mouse BV2 cells assessed as cell viability at 60 uM incubated for 48 hrs by MTT assay (reference value: 100%); format: cell-based, BV-2; conditions: read-out: Activity
[13] = Cytotoxicity in mouse BV2 cells assessed as cell viability at 80 uM incubated for 48 hrs by MTT assay (reference value: 100%); format: cell-based, BV-2; conditions: read-out: Activity
[14] = Cytotoxicity in mouse BV2 cells assessed as cell viability at 100 uM incubated for 48 hrs by MTT assay (reference value: 100%); format: cell-based, BV-2; conditions: read-out: Activity
BV-2 [15] = assay: Inhibition of LPS-induced nitric oxide production in mouse BV2 cells assessed as nitric oxide level at 10 uM pre-incubated before LPS stimulation by Griess reagent based assay (reference value: 121.09%); format: functional; design: scale not given: the % may be the effect or the level left
BV-2 [16] = assay: Inhibition of LPS-induced nitric oxide production in mouse BV2 cells assessed as nitric oxide level at 20 uM pre-incubated before LPS stimulation by Griess reagent based assay (reference value: 121.09%); format: functional; design: scale not given: the % may be the effect or the level left
BV-2 [17] = assay: Inhibition of LPS-induced TNFalpha production in mouse BV2 cells assessed as TNFalpha level at 10 uM pre-incubated before LPS stimulation by ELISA (reference value: 142.71%); format: functional; design: scale not given: the % may be the effect or the level left
BV-2 [18] = assay: Inhibition of LPS-induced TNFalpha production in mouse BV2 cells assessed as TNFalpha level at 20 uM pre-incubated before LPS stimulation by ELISA (reference value: 142.71%); format: functional; design: scale not given: the % may be the effect or the level left
BV-2 [19] = assay: Inhibition of LPS-induced IL6 production in mouse BV2 cells assessed as IL6 level at 10 uM pre-incubated before LPS stimulation by ELISA (reference value: 146.75%); format: functional; design: scale not given: the % may be the effect or the level left
BV-2 [20] = assay: Inhibition of LPS-induced IL6 production in mouse BV2 cells assessed as IL6 level at 20 uM pre-incubated before LPS stimulation by ELISA (reference value: 146.75%); format: functional; design: scale not given: the % may be the effect or the level left
BV-2 [21] = assay: Inhibition of LPS-induced TNFalpha production in mouse BV2 cells at 10 uM pre-incubated before LPS stimulation by ELISA; format: functional
BV-2 [22] = assay: Inhibition of LPS-induced TNFalpha production in mouse BV2 cells at 20 uM pre-incubated before LPS stimulation by ELISA; format: functional
BV-2 [23] = assay: Inhibition of LPS-induced IL6 production in mouse BV2 cells at 10 uM pre-incubated before LPS stimulation by ELISA; format: functional
BV-2 [24] = assay: Inhibition of LPS-induced IL6 production in mouse BV2 cells at 20 uM pre-incubated before LPS stimulation by ELISA; format: functional
Mus musculus [25] = assay: Analgesic activity in Swiss albino mouse model of acetic acid induced writhing assessed as inhibition of pain response at 10 mg/kg, ip dosed 30 mins before acetic acid injection; format: functional
Mus musculus [26] = species on record: Mus musculus; assay: Inhibition of LPS-induced NFkappaB nuclear translocation in mouse BV2 cells pre-incubated before LPS stimulation by immunostaining based confocal laser microscopy; format: cell-based
[27] = target: Transcription factor Jun (Mus musculus) (UniProt P05627); assay: Inhibition of LPS-induced AP1 nuclear translocation in mouse BV2 cells pre-incubated before LPS stimulation by immunostaining based confocal laser microscopy; format: cell-based
BV-2 [28] = assay: Inhibition of LPS-induced MMP9 production production in mouse BV2 cells assessed as MMP9 protein level pre-incubated before LPS stimulation by gelatin zymography (reference value: 105.113%); format: functional; design: scale not given: the % may be the effect or the level left
BV-2 [29] = assay: Inhibition of LPS-induced MMP2 production production in mouse BV2 cells assessed as MMP2 protein level pre-incubated before LPS stimulation by gelatin zymography (reference value: 105.071%); format: functional; design: scale not given: the % may be the effect or the level left
BV-2 [30] = assay: Inhibition of LPS-induced MMP9 production production in mouse BV2 cells pre-incubated before LPS stimulation by gelatin zymography; format: functional, cell-based
BV-2 [31] = assay: Inhibition of LPS-induced MMP2 production production in mouse BV2 cells pre-incubated before LPS stimulation by gelatin zymography; format: functional, cell-based

Chain of Transcription factor Jun (Mus musculus) (P05627 whole entry): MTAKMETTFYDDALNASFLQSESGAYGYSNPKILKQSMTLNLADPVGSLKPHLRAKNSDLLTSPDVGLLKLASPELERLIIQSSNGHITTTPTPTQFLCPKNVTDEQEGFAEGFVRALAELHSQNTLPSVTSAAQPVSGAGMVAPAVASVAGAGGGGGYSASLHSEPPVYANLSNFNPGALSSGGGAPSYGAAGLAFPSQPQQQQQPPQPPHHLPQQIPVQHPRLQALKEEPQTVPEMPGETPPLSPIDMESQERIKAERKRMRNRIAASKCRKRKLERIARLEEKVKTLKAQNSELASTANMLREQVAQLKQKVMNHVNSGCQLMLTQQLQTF

SMILES | IC50 (BV-2 [1]) | Activity (BV-2 [2]) | Activity (BV-2 [3]) | inhibition [4] | viability at 48 h, 0.5 µM [5] | viability at 48 h, 1 µM [6] | viability at 48 h, 5 µM [7] | viability at 48 h, 10 µM [8] | viability at 48 h, 15 µM [9] | viability at 48 h, 20 µM [10] | viability at 48 h, 40 µM [11] | viability at 48 h, 60 µM [12] | viability at 48 h, 80 µM [13] | viability at 48 h, 100 µM [14] | Activity (BV-2 [15]) | Activity (BV-2 [16]) | Activity (BV-2 [17]) | Activity (BV-2 [18]) | Activity (BV-2 [19]) | Activity (BV-2 [20]) | other results
O=C1COCCN1c1ccc(/N=C\c2cn(C(=O)c3ccccc3)c3ccccc23)cc1 | > 100 µM | Active | Active | inactive | 104% | 109% | 87.3% | 88.6% | 86.6% | 85.1% | 72.6% | 57.5% | 58.4% | 52.9% | 97.74% | 98.08% | 199.2439% | 122.9276% | 258.2615% | 185.4729% | –
O=C1COCCN1c1ccc(/N=C\c2cn(Cc3ccccc3)c3ccccc23)cc1 | > 100 µM | Active | Active | inactive | 86.6% | 89.3% | 84% | 91.3% | 95.7% | 87.8% | 69.5% | 65% | 58.7% | 56.2% | 129.638% | 103.8462% | 217.4584% | 183.8555% | 265.8219% | 181.9833% | –
O=C1COCCN1c1ccc(/N=C/c2cn(CCCn3cc(/C=N/c4ccc(N5CCOCC5=O)cc4)c4ccccc43)c3ccccc23)cc1 | > 100 µM | Active | Active | inactive | 99.9% | 97.1% | 94.1% | 91.3% | 93.1% | 95.3% | 79.8% | 72.4% | 67.6% | 61.4% | 107.9186% | 102.1493% | 90.26% | 80.53% | 126.5089% | 111.7925% | inhibition at 10 µM (BV-2 [21]): 36.8%; inhibition at 20 µM (BV-2 [22]): 43.6%; inhibition at 10 µM (BV-2 [23]): 13.8%; inhibition at 20 µM (BV-2 [24]): 23.8%; inhibition in vivo at 10 mg/kg (Mus musculus [25]): 65.5%
Cc1ccc(S(=O)(=O)n2cc(/C=N\c3ccc(N4CCOCC4=O)cc3)c3ccccc32)cc1 | > 100 µM | Active | Active | inactive | 90.9% | 92.1% | 89.1% | 86.4% | 71% | 56.7% | 58.1% | 56% | 57.8% | 57.4% | 108.5973% | 108.2579% | 90.58% | 70.48% | 101.2128% | 94.84% | inhibition at 10 µM (BV-2 [21]): 36.5%; inhibition at 20 µM (BV-2 [22]): 50.6%; inhibition at 10 µM (BV-2 [23]): 31%; inhibition at 20 µM (BV-2 [24]): 35.4%; inhibition (Mus musculus [26]): Active; inhibition [27]: Active; Activity (BV-2 [28]): 95.906%; Activity (BV-2 [29]): 96.245%
O=C1COCCN1c1ccc(/N=C\c2c[nH]c3ccccc23)cc1 | > 100 µM | Active | Active | inactive | 104% | 105% | 101% | 98.5% | 100% | 104% | 105% | 90.8% | 97.8% | 101% | 104.5249% | 104.8643% | 66.71% | 56.03% | 91.1848% | 89.05% | inhibition at 10 µM (BV-2 [21]): 53.3%; inhibition at 20 µM (BV-2 [22]): 60.8%; inhibition at 10 µM (BV-2 [23]): 37.9%; inhibition at 20 µM (BV-2 [24]): 39.3%; inhibition (Mus musculus [26]): Active; inhibition [27]: Active; inhibition (BV-2 [30]): Active; inhibition (BV-2 [31]): Active; Activity (BV-2 [28]): 96.273%; Activity (BV-2 [29]): 94.929%
